Experimental data: patent US20070197557A1, “Fungicidal mixtures” (Basf Aktiengesellschaft, priority 2004, published 2007)

System: Erysiphe [syn. Blumeria] graminis forma specialis. tritici
Test: activity against mildew of wheat, 5 day protective application
Format: in vivo
Conditions: evaluated 7 days after inoculation, Abbot's formula
Protocol: 1% by weight of the emulsifier Uniperol® EL (wetting agent having emulsifying and dispersant action based on ethoxylated alkylphenols) was added to this solution, and the mixture was diluted with water to the desired concentration.
Use example—activity against mildew of wheat caused by Erysiphe [syn. Blumeria] graminis forma specialis. tritici, 5 day protective application
Theor emulsion had been prepared as described above. […] The test plants were then placed in a greenhouse at temperatures between 20 and 24° C. and at 60 to 90% relative atmospheric humidity. After 7 days, the extent of mildew development was determined visually in % infection of the total leaf area
The visually determined percentages of infected leaf areas were converted into efficacies in % of the untreated control:
The efficacy (E) is calculated as follows using Abbot's formula: E=(1-α/β)·100 • α corresponds to the fungal infection of the treated plants in % and • β corresponds to the fungal infection of the untreated (control) plants in %
An efficacy of 0 means that the infection level of the treated plants corresponds to that of the untreated control plants; an efficacy of 100 means that the treated plants were not infected.

[1] = 12.5 ppm active compound in the spray liquor

Row | SMILES | Efficacy in % of the untreated control [1] [%] | Efficacy in % of the untreated control (25 ppm active compound in the spray liquor) [%] | Efficacy in % of the untreated control (50 ppm active compound in the spray liquor) [%]
1 | CCCOc1nc2ccc(I)cc2c(=O)n1CCC [II.1-1, proquinazid] | 67 | 80 | –
2 | CC1CCN(c2c(-c3c(F)cc(F)cc3F)c(Cl)nc3ncnn23)CC1 [I, 5-chloro-7-(4-methylpiperidin-1-yl)-6-(2,4,6-trifluorophenyl)-[1,2,4]triazolo[1,5-a]pyrimidine] | 9 | – | 35
